# Reference: patent US20050171216A1, “Germicidal compositions containing phthalaldehyde mixtures and methods of using such compositions for disinfection or sterilization” (priority 2004, published 2005)
# Tests used:
# [1] = test system: Mycobacterium terrae bacteria; assay: bacterial suspension test (killing of at least 1×10^6/mL bacteria); format: cell-based; conditions: for Log Reductions/mL: 20° C.; for Germicidal Efficacy: summary Table 14
# Procedure: The bacterial suspension test that was employed is described in Section VII.
# The solutions were prepared by adding the appropriate amounts of the germicidal compounds to an aqueous solution. Unless otherwise mentioned all concentrations reported herein are expressed in (w/v) %. The pH of the solution was not adjusted. The tests were conducted at a temperature of about 20° C. (room temperature). The results are presented in terms of log reductions/mL. It is understood that these examples, as well as the other examples herein, are to be construed as merely illustrative, and not limiting.
# In this test method, 9 mL of the germicide to be tested is placed in a tube, put into a water bath and allowed to come to the desired temperature. One mL of the test organism, including at least 7 logs/mL of Mycobacterium terrae bacteria, is added to the 9 mL of the germicide to be tested. […] It will be appreciated by those skilled in the art that other concentrations may be utilized by proper dilution and accounting.
# At appropriate time intervals, 1 mL aliquots of the germicide-cell suspension were removed and added directly into 9 mL of a 1% glycine solution (neutralizer) and mixed thoroughly to neutralize the germicide in the transferred suspension. The glycine solution was prepared from solid glycine, which is available from VWR Scientific Products, among others. The above-identified 10 mL neutralized solution was then poured through a membrane filter having an average pore size of 0.45 micrometers. The filter was then rinsed twice with at least 150 mL of the 1% glycine solution per rinse. The filter was then placed on an agar plate and incubated for twenty-one days at 37° C. In the above procedure, if dilution was needed, then the 1 mL germicidal-cell suspension was diluted in 99 mL of a phosphate buffer before addition to the 9 mL of the 1% glycine solution. The phosphate buffer was DiLu-LoK™ Butterfields Phosphate Buffer, available from Hardy Diagnostics, of Santa Maria, Calif.
# The surviving colonies are then counted. The data is plotted as S/So vs. time. So is the initial count of the bacteria in the above 10 mL solution which is at least 10^6 bacteria/mL, and S is the surviving bacteria from the above filter on the agar plate. The results of the experiments were presented in terms of log reductions. Log reduction is the difference between log(So) and log(S). As one example, if log(So)=6.2, and if there were 100 survivors, then the log(S)=2, and the log reduction was reported as 4.2.
# solubility in water = format: physicochemical; conditions: for Concentration, Saturated: saturated aqueous germicidal solution, pH not adjusted
compound,measurement,setting,value
O=CC(C=O)c1cccc(C(=O)O)c1[N+](=O)[O-] [3-(1-formyl-2-oxoethyl)-2-nitro-benzoic acid],Log Reductions/mL,"[1]; Saturated (˜2.1% w/v), 5 min",4.0 log reductions/mL
same,"Concentration, Saturated",solubility in water,(˜2.1%) w/v %
"O=CC(c1ccccc1)C(O)S(=O)(=O)[O-].[Na+] (stereo not drawn) [1-hydroxy-3-oxo-2-phenyl-propane-1-sulfonic acid, sodium salt]",Log Reductions/mL,"[1]; 0.6%, 5 min",2.1 log reductions/mL
same,Log Reductions/mL,"[1]; 0.6%, 20 min",2.5 log reductions/mL
same,Log Reductions/mL,"[1]; 0.6%, 25 min",2.9 log reductions/mL
same,Log Reductions/mL,"[1]; 0.6%, 60 min, sodium salt",total kill
same,Log Reductions/mL,"[1]; 2.5%, 10 min, sodium salt",total kill
O=Cc1ccc(Br)cc1C=O [4-bromo-phthalaldehyde],Log Reductions/mL,"[1]; 0.1%, 10 minutes",5.6 log reductions/mL
same,Log Reductions/mL,"[1]; 0.1%, 30 minutes",Total Kill
O=CC(C=O)c1ccccc1 [phenyl-propanedial],Log Reductions/mL,"[1]; 0.2%, 60 min",2.1 log reductions/mL
same,Log Reductions/mL,"[1]; 0.22%, 60 min",2.1 log reductions/mL
same,Log Reductions/mL,"[1]; 0.3%, 30 min",2.1 log reductions/mL
same,Log Reductions/mL,"[1]; 0.33%, 30 min",2.1 log reductions/mL
same,Log Reductions/mL,"[1]; 0.4%, 30 min",2.5 log reductions/mL
same,Log Reductions/mL,"[1]; 0.44%, 30 min",2.5 log reductions/mL
same,Log Reductions/mL,"[1]; 0.66%, 5 min",<2.5 log reductions/mL
same,Log Reductions/mL,"[1]; 0.66%, 10 min",2.5 log reductions/mL
same,Log Reductions/mL,"[1]; 0.7%, 10 min",2.5 log reductions/mL
same,Log Reductions/mL,"[1]; ˜1%, 5 min (Table 15)",4.5 log reductions/mL
same,solubility in water,solubility in water,about 1%
O=Cc1ccc(Cl)cc1C=O [4-chloro-phthalaldehyde],Log Reductions/mL,"[1]; 0.2 w/v %, 5 min",5.9 log reductions/mL
same,Log Reductions/mL,"[1]; 2.7 w/v % in 20% isopropanol, 5 min",Total Kill
O=Cc1ccc(F)cc1C=O [4-fluoro-phthalaldehyde],Log Reductions/mL,"[1]; 0.25%, 60 minutes exposure",Total Kill
"O=Cc1cccc(C=O)c1 [IPA, isophthalaldehyde]",Log Reductions/mL,"[1]; 0.3%, dissolved in 20% isopropanol, 5 min",Confluent
same,Log Reductions/mL,"[1]; 0.3%, dissolved in 20% isopropanol, 5 min (Table 15)",Confluent
same,Germicidal Efficacy,[1],Poor
4-pyridinyl-propanedial,Log Reductions/mL,"[1]; Saturated (˜2.3% w/v), 5 min",4.0 log reductions/mL
same,"Concentration, Saturated",solubility in water,(˜2.3%) w/v %
"O=Cc1ccc(C=O)cc1 [TPA, terephthalaldehyde]",Log Reductions/mL,"[1]; 0.2%, dissolved in 20% isopropanol, 5 min",Confluent
same,Germicidal Efficacy,[1],Poor
"O=Cc1ccccc1C(O)S(=O)(=O)[O-].[Na+] (stereo not drawn) [(2-formyl-phenyl)-hydroxy-methane sulfonic acid, sodium salt]",Log Reductions/mL,"[1]; 9.1%, no dialdehyde, 5 min, listed as (2-formyl-phenyl)-hydroxy-methane sulfonate, sodium salt",confluent
same,Log Reductions/mL,"[1]; 9.1%, no dialdehyde, 5 min, listed as H-SULF, sodium salt",Confluent
"O=Cc1ccccc1C=O [OPA, phthalaldehyde]",Log Reductions/mL,"[1]; 0.14%, 5 min",4.8 log reductions/mL
same,Log Reductions/mL,"[1]; 0.28%, 5 min",5.5 log reductions/mL
same,Germicidal Efficacy,[1],Good
same,solubility in water,solubility in water,about 5 % by weight
